Reference: patent US8148371B2, “Adenine compound and use thereof” (Dainippon Sumitomo Pharma Co., Ltd., priority 2002, dated 2012)

test system: plasma esterase; assay: not given; conditions: rat plasma, test compound 10 μM, 37° C., 15 minutes

Row | SMILES | Residual rate [%]
1 | CCCCOc1nc(N)c2nc(O)n(Cc3ccc(N4CCCC(C(=O)OCC)C4)nc3)c2n1 (stereo not drawn) [Example 25, 2-Butoxy-8-hydroxy-9-{6-(3-ethoxycarbonyl-1-piperidyl)-3-pyridylmethyl}adenine] | 16
2 | CCCCOc1nc(N)c2nc(O)n(Cc3cccc(C(=O)OCCN(C)C)c3)c2n1 [Example 7, 2-Butoxy-8-hydroxy-9-{3-(2-dimethylaminoethoxycarbonyl)benzyl}adenine] | 1
3 | COC(=O)OCCOc1nc(N)c2nc(O)n(Cc3ccc(C)nc3)c2n1 [Example 38, 2-{2-(Methoxycarbonyloxy)ethoxy}-8-hydroxy-9-{(6-methyl-3-pyridyl)methyl}adenine] | 2
4 | COC(=O)CNc1nc(N)c2nc(O)n(Cc3ccc(C)nc3)c2n1 [Example 32, 8-Hydroxy-2-methoxycarbonylmethylamino-9-{(6-methyl-3-pyridyl)methyl}adenine] | 0
5 | COC(=O)CCSc1nc(N)c2nc(O)n(Cc3ccccc3)c2n1 [Example 54, 9-Benzyl-8-hydroxy-2-(2-methoxycarbonylethyl)thioadenine] | 0
6 | CCCCOc1nc(N)c2nc(O)n(Cc3cccc(C(=O)OCCO)c3)c2n1 [Example 6, 2-Butoxy-8-hydroxy-9-{3-(2-hydroxyethoxycarbonyl)benzyl}adenine] | 14
7 | COC(=O)CSc1nc(N)c2nc(O)n(Cc3ccccc3)c2n1 [Example 40, 9-Benzyl-8-hydroxy-2-(methoxycarbonylmethyl)thioadenine] | 0
8 | CCOC(=O)CC(=O)CSc1nc(N)c2nc(O)n(Cc3ccccc3)c2n1 [Example 58, 9-Benzyl-2-(ethoxycarbonylmethylcarbonylmethyl)thio-8-hydroxyadenine] | 0
9 | COC(=O)Cc1nc(N)c2nc(O)n(Cc3ccccc3)c2n1 [Example 29, 9-Benzyl-8-hydroxy-2-methoxycarbonylmethyladenine] | 0
10 | CCCCOc1nc(N)c2nc(O)n(Cc3ccc(N4CCC(C(=O)OCC)CC4)nc3)c2n1 [Example 24, 2-Butoxy-8-hydroxy-9-{6-(4-ethoxycarbonyl-1-piperidyl)-3-pyridylmethyl}adenine] | 7

test system: IL-5; assay: IL-5 in BALF supernatant on an asthma modeled mouse (ELISA); type: in vivo, C57BL/6 mouse; conditions: 10 mg/kg nasally
Description: (§1) C57BL/6 mouse was immunized by dermally administering denatured ovalbumin by heating (40 mg). Fourteen days later after the first immunization, ovalbumin (100 μg) was nasally busted. Twenty one days later after the first immunization, the solution (1 ml/kg) prepared by suspending the test compound (10 mg/kg) in physiological saline was nasally administered (10 μl/10 g/body weight). After 2 hours ovalbumin (100 μg) was nasally challenged. After 18 hours, bronchoalveolar lavege fluid (BALF) was collected, and the total number of leucocytes in BALF and fractioned leukocyte in the cytospin sample were measured. By ELISA method, IL-4 and IL-5 in the supernatant were measured. The number of leucocytes (inhibition %) was shown in Table 5 and the production inhibition activity of IL-4 and IL-5 (inhibition % to control) was shown in Table 6.

Row | SMILES | IL-5 production inhibition activity (inhibition % to control) [%]
11 | CCC(=O)OCC(=O)[C@@]1(OC(=O)CC)[C@@H](C)C[C@H]2[C@@H]3CCC4=CC(=O)C=C[C@]4(C)[C@@]3(Cl)[C@@H](O)C[C@@]21C [Beclometasone dipropionate] | 100

test system: leucocytes in BALF; assay: Amount of leucocytes in bronchoalveolar lavage fluid (BALF) on an asthma modeled mouse; type: in vivo, C57BL/6 mouse; conditions: 10 mg/kg nasally, BALF 18 hours after ovalbumin challenge
Description: as §1

Row | SMILES | Acidophile (inhibition %) [%] | Netrophile (inhibition %) [%] | Number of total leukocyte (inhibition %) [%]
12 | CCC(=O)OCC(=O)[C@@]1(OC(=O)CC)[C@@H](C)C[C@H]2[C@@H]3CCC4=CC(=O)C=C[C@]4(C)[C@@]3(Cl)[C@@H](O)C[C@@]21C [Beclometasone dipropionate] | 89 | 90 | 92

test system: cells of mouse spleen; assay: cells; type: cell-based, C3H/HeJ mouse; conditions: Mus musculus, 24 h, read-out: Minimum effective concentration (interferon inducing activity)

Row | SMILES | minimal effective concentration [µM]
13 | CCCCOc1nc(N)c2nc(O)n(Cc3ccc(N4CCCC(C(=O)OCC)C4)nc3)c2n1 (stereo not drawn) [Example 25, 2-Butoxy-8-hydroxy-9-{6-(3-ethoxycarbonyl-1-piperidyl)-3-pyridylmethyl}adenine] | 0.003
14 | CCCCOc1nc(N)c2nc(O)n(Cc3cccc(C(=O)OCCN(C)C)c3)c2n1 [Example 7, 2-Butoxy-8-hydroxy-9-{3-(2-dimethylaminoethoxycarbonyl)benzyl}adenine] | < 0.001
15 | COC(=O)OCCOc1nc(N)c2nc(O)n(Cc3ccc(C)nc3)c2n1 [Example 38, 2-{2-(Methoxycarbonyloxy)ethoxy}-8-hydroxy-9-{(6-methyl-3-pyridyl)methyl}adenine] | 0.01
16 | COC(=O)CNc1nc(N)c2nc(O)n(Cc3ccc(C)nc3)c2n1 [Example 32, 8-Hydroxy-2-methoxycarbonylmethylamino-9-{(6-methyl-3-pyridyl)methyl}adenine] | 0.01
17 | COC(=O)CCSc1nc(N)c2nc(O)n(Cc3ccccc3)c2n1 [Example 54, 9-Benzyl-8-hydroxy-2-(2-methoxycarbonylethyl)thioadenine] | 0.1
18 | CCCCOc1nc(N)c2nc(O)n(Cc3cccc(C(=O)OCCO)c3)c2n1 [Example 6, 2-Butoxy-8-hydroxy-9-{3-(2-hydroxyethoxycarbonyl)benzyl}adenine] | < 0.001
19 | COC(=O)CSc1nc(N)c2nc(O)n(Cc3ccccc3)c2n1 [Example 40, 9-Benzyl-8-hydroxy-2-(methoxycarbonylmethyl)thioadenine] | 0.01
20 | CCOC(=O)CC(=O)CSc1nc(N)c2nc(O)n(Cc3ccccc3)c2n1 [Example 58, 9-Benzyl-2-(ethoxycarbonylmethylcarbonylmethyl)thio-8-hydroxyadenine] | 0.1
21 | Nc1nc(SCC(=O)O)nc2c1nc(O)n2Cc1ccccc1 [Comparative example 12, 9-Benzyl-8-hydroxy-2-(calboxylmethyl)thioadenine, reference compound] | 10
22 | COC(=O)Cc1nc(N)c2nc(O)n(Cc3ccccc3)c2n1 [Example 29, 9-Benzyl-8-hydroxy-2-methoxycarbonylmethyladenine] | 0.01
23 | CCCCOc1nc(N)c2nc(O)n(Cc3cccc(C(=O)O)c3)c2n1 [Comparative example 1, 2-Butoxy-8-hydroxy-9-(3-carboxybenzyl)adenine, reference compound] | 0.003
24 | CCCCOc1nc(N)c2nc(O)n(Cc3ccc(N4CCC(C(=O)OCC)CC4)nc3)c2n1 [Example 24, 2-Butoxy-8-hydroxy-9-{6-(4-ethoxycarbonyl-1-piperidyl)-3-pyridylmethyl}adenine] | < 0.001

test system: cells of rat spleen; assay: cells; type: cell-based, SD rat; conditions: 24 h, read-out: Minimum effective concentration (interferon inducing activity)

Row | SMILES | minimal effective concentration [µM]
25 | COC(=O)CCSc1nc(N)c2nc(O)n(Cc3ccccc3)c2n1 [Example 54, 9-Benzyl-8-hydroxy-2-(2-methoxycarbonylethyl)thioadenine] | 0.01
26 | COC(=O)CSc1nc(N)c2nc(O)n(Cc3ccccc3)c2n1 [Example 40, 9-Benzyl-8-hydroxy-2-(methoxycarbonylmethyl)thioadenine] | 0.01
27 | Nc1nc(SCC(=O)O)nc2c1nc(O)n2Cc1ccccc1 [Comparative example 12, 9-Benzyl-8-hydroxy-2-(calboxylmethyl)thioadenine, reference compound] | 0.3
28 | COC(=O)Cc1nc(N)c2nc(O)n(Cc3ccccc3)c2n1 [Example 29, 9-Benzyl-8-hydroxy-2-methoxycarbonylmethyladenine] | 0.01
29 | CCCCOc1nc(N)c2nc(O)n(Cc3cccc(C(=O)O)c3)c2n1 [Comparative example 1, 2-Butoxy-8-hydroxy-9-(3-carboxybenzyl)adenine, reference compound] | 0.01
30 | CCCCOc1nc(N)c2nc(O)n(Cc3ccc(N4CCC(C(=O)OCC)CC4)nc3)c2n1 [Example 24, 2-Butoxy-8-hydroxy-9-{6-(4-ethoxycarbonyl-1-piperidyl)-3-pyridylmethyl}adenine] | 0.0003

test system: IL-4; assay: IL-4 in BALF supernatant on an asthma modeled mouse (ELISA); type: in vivo, C57BL/6 mouse; conditions: 10 mg/kg nasally
Description: as §1

Row | SMILES | IL-4 production inhibition activity (inhibition % to control) [%]
31 | CCC(=O)OCC(=O)[C@@]1(OC(=O)CC)[C@@H](C)C[C@H]2[C@@H]3CCC4=CC(=O)C=C[C@]4(C)[C@@]3(Cl)[C@@H](O)C[C@@]21C [Beclometasone dipropionate] | 97
